The species named for experiment [1] is Homo sapiens. In words: Enhancement ratio in theophylline permeation through human skin from isopropyl myristate (IPM) suspension (in vitro). In kind it is functional.
Experiment [2] is filed under the species Homo sapiens. In words: Enhancement ratio in theophylline permeation through human skin from water (in vitro). In kind it is functional.

Consider `CCCCCCCC/C=C/CCCCCCCC(=O)NC(CO)C(=O)OCCCCCCCCCCCC` (centres undefined), for which the ER in the experiment filed under Homo sapiens [1] worked out at 1.49; in the experiment filed under Homo sapiens [2], 1.26.

Turning to `CCCCCCCCCCCCOC(=O)CNC(=O)CCCCCCCCCCC`, the values for the ER in the experiment listed under Homo sapiens [1] and in the experiment listed under Homo sapiens [2] were 1.11 and 12.5, respectively.

`CCCCCCCCCCCCOC(=O)CNC(=O)CNC(=O)CCCCCCCCCCC`: the ER in the experiment listed under Homo sapiens [1] was found to be 1.09; in the experiment listed under Homo sapiens [2], 2.28.

As to `CCCCCCCCCCCCN1CCCCCC1=O` [LAUROCAPRAM], the ER was found to be 0.6 in the experiment listed under Homo sapiens [1] and 2.5 in the experiment listed under Homo sapiens [2].

For `CCCCCCCCCCCCOC(=O)C(CO)NC(=O)CCCCCCCCCCC` (centres undefined), the ER in the experiment listed under Homo sapiens [1] is 1.21; in the experiment filed under Homo sapiens [2], 2.74.

Regarding `CCCCCCCCCCCCOC(=O)C(CO)NC(=O)C(O)C(O)C(=O)OCCCCCCCCCCC` (centres undefined), the ER is recorded as 1.45 in the experiment filed under Homo sapiens [1] and 1.39 in the experiment listed under Homo sapiens [2].

Regarding `CCCCCCCCCCCCOC(=O)C(CO)NC(=O)C(CO)NC(=O)CCCCCCCCCCC` (centres undefined), the ER in the experiment listed under Homo sapiens [1] turned out to be 1.07; in the experiment filed under Homo sapiens [2] it was 1.26.

For the origin of these results see ChEMBL document CHEMBL1144947, “L-Serine and glycine based ceramide analogues as transdermal permeation enhancers: polar head size and hydrogen bonding” (2003).
